Reference: patent EP4714952A1, “COMPOUND AND USE THEREOF” (Autobio Group Co., Ltd., priority 2023, dated 2025)
Where a name gives a salt, the structure may show the parent alone. Read-outs that look alike come from different tables or passages of the source.

Assays:
PDE3A = target: T1, PDE3A (Homo sapiens, UniProt Q14432); experiment: In vitro inhibitory effect on PDE3A enzyme (AMP-Glo assay); assay type: biochemical
T1 construct: purchased BPS
Experimental: (§1) 1. Table 1 Main reagents and consumables for in vitro detection of inhibitory effect
(§2) 2. Preparation of experimental buffers Reaction buffer (5×): 50 mM Tris-HCl (buffer), 50 mM MgCl2, 0.5% BSA, 0.25% Tween-20, pH 7.4, stored at -20°C. 3. […] The starting concentration of the reference substance serial dilution was the Low control, and 1% DMSO-reaction buffer served as the High control. • 3) The enzyme was diluted to the desired concentration with 1× reaction buffer, and 4 µL of the diluted solution was transferred to the assay plate. After centrifugation, the 384-well low dead-volume microplate was sealed with sealing film and incubated in the incubator at 23°C for 15 minutes. • 4) The substrate cAMP was diluted to the desired concentration using 1× reaction buffer, and 5 µL of the diluted solution was transferred to the assay plate. After centrifugation, the plate was sealed again and incubated in the incubator at 23°C for 60 minutes (PDE3A) or 10 minutes (PDE4B1). • 5) Then, 5 µL of Reagent I from the AMP-Glo™ Assay Kit was added to the assay plate. After centrifugation and sealing, the plate was incubated in the incubator at 23°C for 60 minutes. • 6) The detection solution was prepared according to the AMP-Glo™ Assay Kit instructions, and 10 µL of the detection solution was added to the assay plate. After centrifugation and sealing, the plate was incubated in the incubator at 23°C for 60 minutes. • 7) The readout was recorded using a multimode microplate reader. 4. […] 5.

PDE4B1 = target: T2, PDE4B1 (Homo sapiens, UniProt Q07343); experiment: In vitro inhibitory effect on PDE4B1 enzyme (AMP-Glo assay); assay type: biochemical
T2 construct: purchased Sigma
Experimental: as §1, §2

[1] = AMP-Glo Assay Kit, substrate cAMP, 23°C, 60 minutes, read-out: PDE3A (IC50)
[2] = AMP-Glo Assay Kit, substrate cAMP, 23°C, 10 minutes, read-out: PDE4B1 (IC50)

T2 sequence (Q07343 whole entry): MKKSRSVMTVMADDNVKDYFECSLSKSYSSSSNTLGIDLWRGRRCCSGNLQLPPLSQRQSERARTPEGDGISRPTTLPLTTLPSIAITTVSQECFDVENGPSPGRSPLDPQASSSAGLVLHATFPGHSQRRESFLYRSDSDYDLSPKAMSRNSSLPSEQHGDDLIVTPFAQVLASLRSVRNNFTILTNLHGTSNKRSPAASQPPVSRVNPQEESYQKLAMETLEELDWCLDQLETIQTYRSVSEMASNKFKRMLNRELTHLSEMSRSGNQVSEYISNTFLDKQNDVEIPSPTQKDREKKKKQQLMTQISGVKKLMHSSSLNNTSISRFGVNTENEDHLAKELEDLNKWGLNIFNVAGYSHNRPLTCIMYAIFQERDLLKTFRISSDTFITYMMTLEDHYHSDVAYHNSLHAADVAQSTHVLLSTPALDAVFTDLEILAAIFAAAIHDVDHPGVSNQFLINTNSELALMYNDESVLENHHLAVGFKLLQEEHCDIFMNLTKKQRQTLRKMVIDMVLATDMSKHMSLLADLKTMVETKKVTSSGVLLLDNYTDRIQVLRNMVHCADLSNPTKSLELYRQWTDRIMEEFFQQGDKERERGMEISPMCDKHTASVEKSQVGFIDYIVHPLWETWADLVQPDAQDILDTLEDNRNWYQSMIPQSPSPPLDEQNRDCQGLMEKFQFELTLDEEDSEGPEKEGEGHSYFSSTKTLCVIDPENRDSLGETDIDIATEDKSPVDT
T1 sequence (Q14432 whole entry): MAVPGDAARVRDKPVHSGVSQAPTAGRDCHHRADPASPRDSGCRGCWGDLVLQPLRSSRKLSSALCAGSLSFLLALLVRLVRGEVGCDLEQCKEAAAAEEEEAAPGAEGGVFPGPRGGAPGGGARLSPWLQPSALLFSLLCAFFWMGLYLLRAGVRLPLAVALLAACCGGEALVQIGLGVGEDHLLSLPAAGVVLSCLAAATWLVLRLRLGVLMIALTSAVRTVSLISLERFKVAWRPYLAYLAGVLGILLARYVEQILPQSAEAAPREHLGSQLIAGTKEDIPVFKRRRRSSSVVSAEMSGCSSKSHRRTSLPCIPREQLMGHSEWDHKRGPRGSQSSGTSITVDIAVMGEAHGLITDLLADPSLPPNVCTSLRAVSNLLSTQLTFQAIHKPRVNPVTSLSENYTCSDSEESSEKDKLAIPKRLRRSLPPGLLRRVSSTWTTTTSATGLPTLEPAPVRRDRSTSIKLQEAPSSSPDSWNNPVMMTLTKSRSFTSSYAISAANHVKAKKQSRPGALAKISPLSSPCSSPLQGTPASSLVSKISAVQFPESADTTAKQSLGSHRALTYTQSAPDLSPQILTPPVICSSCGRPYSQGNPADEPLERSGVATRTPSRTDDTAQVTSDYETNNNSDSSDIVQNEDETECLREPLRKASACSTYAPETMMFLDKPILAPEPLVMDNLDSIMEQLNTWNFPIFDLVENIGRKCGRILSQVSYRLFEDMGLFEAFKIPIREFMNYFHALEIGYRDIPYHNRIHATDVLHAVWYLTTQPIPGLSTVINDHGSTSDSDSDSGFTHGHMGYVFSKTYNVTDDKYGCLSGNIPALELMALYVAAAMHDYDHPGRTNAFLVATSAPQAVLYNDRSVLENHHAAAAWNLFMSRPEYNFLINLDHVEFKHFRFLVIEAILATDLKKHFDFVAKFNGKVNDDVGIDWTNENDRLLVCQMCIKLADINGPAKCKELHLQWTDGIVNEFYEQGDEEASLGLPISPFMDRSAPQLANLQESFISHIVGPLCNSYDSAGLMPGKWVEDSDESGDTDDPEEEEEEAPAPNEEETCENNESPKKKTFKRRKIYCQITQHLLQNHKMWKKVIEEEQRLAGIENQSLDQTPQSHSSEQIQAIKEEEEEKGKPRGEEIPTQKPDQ

Compound | IC50 (PDE3A) | IC50 (PDE4B1) | IC50 (PDE3A; [1]) | IC50 (PDE4B1; [2])
COc1cc2c(cc1OC)-c1cc(N(c3c(C)cc(C)cc3C)C3CN(C(=O)c4[nH]nnc4C)C3)nc(=O)n1CC2 [Compound 50] | 0.005 nM | 67.4 nM |  | 
COc1cc2c(cc1OC)-c1cc(N(c3c(C)cc(C)cc3C)C3CN(C(=O)c4cnc[nH]4)C3)nc(=O)n1CC2 [Compound 49] |  |  | 325 nM | 
COc1cc2c(cc1OC)-c1cc(N(CCC(C)(C)O)c3c(C)cc(C)cc3C)nc(=O)n1CC2 [Compound 18] |  |  | 0.088 nM | 213 nM
CNCCn1c(=Nc2c(C)cc(C)cc2C)cc2n(c1=O)CCc1cc(OC)c(OC)cc1-2 [Compound 16] |  |  | 6.63 nM | 
COc1cc2c(cc1OC)S(=O)(=O)CCn1c-2cc(=Nc2c(C)cc(C)cc2C)n(CCNC(N)=O)c1=O [Compound 21] | 1000 nM | 6910 nM |  | 
COc1cc2c(cc1OC)-c1cc(=Nc3c(C)cc(C)cc3C)n(CCNC(=O)c3cnc4n3CCC4)c(=O)n1CC2 [Compound 36] | 0.9 nM | 530 nM |  | 
CCOc1cc2c(cc1OC)-c1cc(N(CCNC(=O)c3nnc(C)o3)c3c(C)cc(C)cc3C)nc(=O)n1CC2 [Compound 65] |  |  | 0.036 nM | 10.8 nM
CCOc1cc2c(cc1OC)-c1cc(N(CCNC(=O)N3CCOCC3CO)c3c(C)cc(C)cc3C)nc(=O)n1CC2 (centres unmarked) [Compound 83] |  |  | 0.043 nM | 37.3 nM
CCOc1cc2c(cc1OC)-c1cc(=Nc3c(C)cc(C)cc3C)n(CCNC(=O)c3ccnn(C)c3=O)c(=O)n1CC2 [Compound 59] | 0.76 nM | 27.6 nM |  | 
COc1cc2c(cc1OC1CCOC1)CCn1c-2cc(=Nc2c(C)cc(C)cc2C)n(CCNC(N)=O)c1=O (centres unmarked) [Compound 25] | 4.47 nM | 381 nM |  | 
CCOc1cc2c(cc1OC)-c1cc(=Nc3c(C)cc(C)cc3C)n(CCNC(=O)c3ccnc(Cl)c3)c(=O)n1CC2 [Compound 29] | 4.78 nM | 423 nM |  | 
COc1cc2c(cc1OC)-c1cc(=Nc3c(C)cc(C)cc3C)n(CCNC(=O)OCC(O)CCO)c(=O)n1CC2 (centres unmarked) [Compound 69] | 1.91 nM | 6750 nM |  | 
COc1cc2c(cc1OCc1ccccc1)CCn1c-2cc(=Nc2c(C)cc(C)cc2C)n(CCNC(N)=O)c1=O [Compound 24] |  |  | 1010 nM | 
COc1cc2c(cc1OC)-c1cc(N(CCNC(=O)c3c(O)nnn3C)c3c(C)cc(C)cc3C)nc(=O)n1CC2 [Compound 44] | 0.081 nM | 223 nM |  | 
COc1cc2c(cc1OC)-c1cc(=Nc3c(C)cc(C)cc3C)n(CCNC(=O)NC3CCNCC3)c(=O)n1CC2 [Compound 67] | 5.49 nM | 3800 nM |  | 
CCOc1cc2c(cc1OC)-c1cc(N(CCNC(=O)c3ccno3)c3c(C)cc(C)cc3C)nc(=O)n1CC2 [Compound 62] |  |  | 0.055 nM | 2.6 nM
Cc1cc(C)c(N=c2cc3n(c(=O)n2CCNC(N)=O)CCc2cc4c(cc2-3)OCCO4)c(C)c1 [Compound 13] | 44.6 nM |  |  | 
COc1cc2c(cc1OC)-c1cc(=Nc3c(C)cc(C)cc3C)n(CCNC(=O)N3CCOCC3CO)c(=O)n1CC2 (centres unmarked) [Compound 70] | 1.24 nM | 2830 nM |  | 
CONC(=O)NCCn1c(=Nc2c(C)cc(C)cc2C)cc2n(c1=O)CCc1cc(OC)c(OC)cc1-2 [Compound 8] | 0.86 nM | 377 nM |  | 
COc1cc2c(cc1OC)-c1cc(N(CCC(O)CO)c3c(C)cc(C)cc3C)nc(=O)n1CC2 (centres unmarked) [Compound 6] |  |  | 0.026 nM | 121 nM
COc1cc2c(cc1OC)-c1cc(=Nc3c(C)cc(C)cc3C)n(CCC(O)CO)c(=O)n1CC2 (centres unmarked) [Compound 5] |  |  | 0.1 nM | 974 nM
COc1cc2c(cc1OC)-c1cc(=Nc3c(C)cc(C)cc3C)n(CCNC(=O)c3cccn(CC(F)(F)F)c3=O)c(=O)n1CC2 [Compound 55] | 0.49 nM | 262 nM |  | 

Compound | IC50 (PDE3A) | IC50 (PDE4B1) | IC50 (PDE3A; [1]) | IC50 (PDE4B1; [2])
Cc1cc(C)c(N=c2cc3n(c(=O)n2CCNC(N)=O)CCc2cc4c(cc2-3)OCO4)c(C)c1 [Compound 11] | 117 nM |  |  | 
CCOc1cc2c(cc1OC)-c1cc(=Nc3c(C)cc(C)cc3C)n(CCNC(=O)c3cc[nH]c(=O)c3)c(=O)n1CC2 [Compound 30] | 3.23 nM | 26.3 nM |  | 
CCOc1cc2c(cc1OC)-c1cc(N(CCN3CCN(C(C)=O)CC3)c3c(C)cc(C)cc3C)nc(=O)n1CC2 [Compound 71] |  |  | 0.057 nM | 13.2 nM
CCn1cccc(C(=O)NCCn2c(=Nc3c(C)cc(C)cc3C)cc3n(c2=O)CCc2cc(OC)c(OC)cc2-3)c1=O [Compound 40] | 1.29 nM | 82.1 nM |  | 
COc1cc2c(cc1OCC1CC1)CCn1c-2cc(=Nc2c(C)cc(C)cc2C)n(CCNC(=O)c2c(O)nnn2C)c1=O [Compound 27] |  |  | 2.16 nM | 918 nM
COc1cc2c(cc1OC)-c1cc(=Nc3c(C)cc(C)cc3C)n(CCC(C)(C)O)c(=O)n1CC2 [Compound 17] |  |  | 0.54 nM | 5000 nM
CCOc1cc2c(cc1OC)-c1cc(N(CCN3CC(F)C3)c3c(C)cc(C)cc3C)nc(=O)n1CC2 [Compound 74] |  |  | 0.05 nM | 8.1 nM
COc1cc2c(cc1OC1CCN(C)C1)CCn1c-2cc(=Nc2c(C)cc(C)cc2C)n(CCNC(N)=O)c1=O (centres unmarked) [Compound 37] | 60.1 nM |  |  | 
CCOc1cc2c(cc1OC)-c1cc(=Nc3c(C)cc(C)cc3C)n(CCNC(=O)c3c(O)nnn3C)c(=O)n1CC2 [Compound 23] | 0.0058 nM | 12.9 nM |  | 
COc1cc2c(cc1OC)-c1cc(=Nc3c(C)cc(C)cc3C)n(CCNC(N)=O)c(=O)n1CCS2 [Compound 20] | 24.9 nM | 251 nM |  | 
COc1cc2c(cc1OC)-c1cc(N(CCNC(=O)c3cccn(C)c3=O)c3c(C)cc(C)cc3C)nc(=O)n1CC2 [Compound 46] | 0.082 nM | 17.8 nM |  | 
CCOc1cc2c(cc1OC)-c1cc(=Nc3c(C)cc(C)cc3C)n(CCN3CCS(=O)(=O)CC3)c(=O)n1CC2 [Compound 73] |  |  | 0.53 nM | 414 nM
COc1cc2c(cc1OC)-c1c/c(=N\c3c(C)cc(C)cc3C)n(C)c(=O)n1CC2 [Trequinsin Hydrochlorid, Trequinsin hydrochloride, reference compound] |  |  | 0.227 nM | 
COc1cc2c(cc1OC)-c1cc(=Nc3c(C)cc(C)cc3C)n(CCN3CCn4c(nnc4C(F)(F)F)C3)c(=O)n1CC2 [Compound 34] | 6.4 nM |  |  | 
CCOc1cc2c(cc1OC)-c1cc(N(CCCN)c3c(C)cc(C)cc3C)nc(=O)n1CC2 [Compound 81] |  |  | 0.33 nM | 64.4 nM
CCOc1cc2c(cc1OC)-c1cc(N(CCNC(=O)c3c[nH]nn3)c3c(C)cc(C)cc3C)nc(=O)n1CC2 [Compound 64] |  |  | 0.019 nM | 8.4 nM
CCOc1cc2c(cc1OC)-c1cc(=Nc3c(C)cc(C)cc3C)n(CCNC(=O)NOC)c(=O)n1CC2 [Compound 85] | 0.31 nM | 40.5 nM |  | 
COc1cc2c(cc1OC)-c1cc(N(c3c(C)cc(C)cc3C)C3CN(C(N)=O)C3)nc(=O)n1CC2 [Compound 32] | 0.21 nM | 238 nM |  | 
CCOc1cc2c(cc1OC)-c1cc(N(c3c(C)cc(C)cc3C)C3CN(C(=O)c4[nH]nnc4C)C3)nc(=O)n1CC2 [Compound 77] |  |  | 24.7 nM | 6730 nM
COc1cc2c(cc1OC)-c1cc(N(c3c(C)cc(C)cc3C)C3CN(C(=O)c4ncon4)C3)nc(=O)n1CC2 [Compound 51] |  |  | 89.5 nM | 1450 nM
COc1cc2c(cc1OC)-c1cc(N(c3c(C)cc(C)cc3C)C3CN(C(=O)c4c(O)nnn4C)C3)nc(=O)n1CC2 [Compound 47] |  |  | 72.3 nM | 
